In ChEMBL document CHEMBL1201862, “PubChem BioAssay data set” (2004):
The source made the active and inactive calls.

Tests used:
[1] = Luminescent dose response cell-based high throughput screening assay for inhibitors of the Janus kinase 2 mutant JAK2V617F. [Related pubchem assays: 1446 (Primary screen.), 1521 (Confirmation assay.), 1486 (Counter screen.)]; type: functional
Vero [2] = experiment: mammalian cell viability reduction – secondary assay, cytotoxicity control for West Nile virus antiviral project, dose response (AID 1650); type: functional; settings: Chlorocebus sabaeus
[3] = Luminescence Cell-Based Dose Retest to Confirm Inhibitors of Cancer Stem Cells. [Related pubchem assays (depositor defined):AID2717, AID2721]; type: functional; settings: Homo sapiens
[4] = target: T1, Heat shock factor protein 1 (Mus musculus, UniProt P38532); experiment: enhancement of HSF1-driven luciferase signal – cell-based, NIH3T3, luminescence, dose retest, confirmation (AID 435004); type: functional;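 also: stress induced by proteasome inhibitor MG132 added 30 min after compound; luciferase reporter driven by HSF1 response element in NIH3T3 cells; actives raise luminescence as potentiators of the MG132 stress response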
T1 sequence (P38532 whole entry): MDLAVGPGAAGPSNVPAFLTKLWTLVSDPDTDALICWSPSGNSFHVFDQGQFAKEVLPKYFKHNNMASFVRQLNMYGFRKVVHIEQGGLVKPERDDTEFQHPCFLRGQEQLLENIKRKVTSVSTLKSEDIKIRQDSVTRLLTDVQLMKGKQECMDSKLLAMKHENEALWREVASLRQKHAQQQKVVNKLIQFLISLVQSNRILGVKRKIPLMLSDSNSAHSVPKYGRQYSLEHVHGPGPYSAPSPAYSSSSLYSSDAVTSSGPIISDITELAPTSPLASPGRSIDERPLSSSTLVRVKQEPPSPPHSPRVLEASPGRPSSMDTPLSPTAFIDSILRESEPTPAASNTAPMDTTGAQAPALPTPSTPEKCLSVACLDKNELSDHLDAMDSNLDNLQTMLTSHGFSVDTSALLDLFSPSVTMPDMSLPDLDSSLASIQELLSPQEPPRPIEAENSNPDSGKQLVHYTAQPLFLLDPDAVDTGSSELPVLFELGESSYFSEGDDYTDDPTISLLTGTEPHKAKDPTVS

[5] = target: T2, Replicative DNA helicase DnaB (Mycobacterium tuberculosis, UniProt P9WMR3); experiment: DnaB intein splicing inhibitors, dose response, biochemical, cell-free fluorescence (AID 449749); type: functional
T2 sequence (P9WMR3 whole entry): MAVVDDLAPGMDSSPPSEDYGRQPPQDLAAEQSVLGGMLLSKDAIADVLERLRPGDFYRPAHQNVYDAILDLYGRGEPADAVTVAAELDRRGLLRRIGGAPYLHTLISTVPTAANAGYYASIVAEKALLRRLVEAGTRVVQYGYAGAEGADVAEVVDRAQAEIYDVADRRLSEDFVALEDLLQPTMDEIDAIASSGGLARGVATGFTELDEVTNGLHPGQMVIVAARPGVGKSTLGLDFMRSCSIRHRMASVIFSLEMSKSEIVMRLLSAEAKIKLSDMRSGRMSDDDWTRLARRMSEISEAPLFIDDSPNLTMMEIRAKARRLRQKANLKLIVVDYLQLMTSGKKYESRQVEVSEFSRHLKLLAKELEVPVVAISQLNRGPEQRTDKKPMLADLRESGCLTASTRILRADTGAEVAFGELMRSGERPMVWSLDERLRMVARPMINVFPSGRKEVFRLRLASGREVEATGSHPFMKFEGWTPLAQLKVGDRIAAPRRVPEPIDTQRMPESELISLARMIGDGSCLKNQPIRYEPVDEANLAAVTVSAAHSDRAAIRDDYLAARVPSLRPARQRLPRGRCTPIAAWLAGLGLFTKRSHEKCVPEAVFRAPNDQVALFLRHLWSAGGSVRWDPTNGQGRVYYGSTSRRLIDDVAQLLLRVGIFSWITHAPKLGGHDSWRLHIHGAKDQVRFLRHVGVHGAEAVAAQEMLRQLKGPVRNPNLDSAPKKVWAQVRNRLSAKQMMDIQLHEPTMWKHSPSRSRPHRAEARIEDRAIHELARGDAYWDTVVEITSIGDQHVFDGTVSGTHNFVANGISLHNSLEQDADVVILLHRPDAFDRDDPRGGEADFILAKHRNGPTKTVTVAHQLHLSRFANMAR

Vero [6] = experiment: viability of Vero cells under compound – cytotoxicity control for flavivirus capping enzyme inhibitors (AID 588742); type: functional; settings: Chlorocebus sabaeus
Vero [7] = experiment: cells; type: functional, cell-based; settings: Chlorocebus sabaeus
Protein RecA = target: T3, Protein RecA (Mycobacterium tuberculosis, UniProt P9WHJ3); experiment: Fluorescence Cell-Free Homogeneous Dose Retest to Identify Inhibitors of RecA-Intein Splicing Activity. [Related pubchem assays (depositor defined):AID2097, AID2223, AID489010, AID492950]; type: functional
T3 sequence (P9WHJ3 whole entry): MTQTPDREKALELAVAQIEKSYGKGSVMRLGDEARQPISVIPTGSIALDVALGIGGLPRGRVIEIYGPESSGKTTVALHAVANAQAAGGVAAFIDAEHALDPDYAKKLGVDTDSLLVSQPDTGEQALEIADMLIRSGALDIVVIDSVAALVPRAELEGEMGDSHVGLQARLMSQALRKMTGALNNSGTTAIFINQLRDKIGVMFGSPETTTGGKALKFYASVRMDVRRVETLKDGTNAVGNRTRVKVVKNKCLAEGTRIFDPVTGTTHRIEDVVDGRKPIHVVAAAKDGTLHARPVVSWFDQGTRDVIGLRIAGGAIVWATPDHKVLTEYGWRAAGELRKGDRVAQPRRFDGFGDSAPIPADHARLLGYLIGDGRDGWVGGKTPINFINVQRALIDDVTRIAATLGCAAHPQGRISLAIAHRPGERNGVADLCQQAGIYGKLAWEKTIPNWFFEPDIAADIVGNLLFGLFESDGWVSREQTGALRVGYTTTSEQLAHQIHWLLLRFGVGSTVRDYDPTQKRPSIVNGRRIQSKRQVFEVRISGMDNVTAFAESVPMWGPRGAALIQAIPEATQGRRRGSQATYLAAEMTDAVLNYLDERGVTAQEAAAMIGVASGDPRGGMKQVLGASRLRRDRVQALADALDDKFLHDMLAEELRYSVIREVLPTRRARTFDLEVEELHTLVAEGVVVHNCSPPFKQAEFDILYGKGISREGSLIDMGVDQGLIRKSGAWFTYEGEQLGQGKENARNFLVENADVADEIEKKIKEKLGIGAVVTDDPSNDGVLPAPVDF

Vero [8] = experiment: cells; type: functional; settings: Chlorocebus sabaeus
Genome polyprotein = Genome polyprotein (dengue virus type 2, UniProt P29990); experiment: flavivirus cap methylation enzyme inhibition – biochemical, confirmation dose response, primary screen (AID 588689); type: functional
[9] = viability of uninfected HEp-2 cells – cell-based, HTS, cytotoxicity control for RSV inhibitor project, dose response (AID 2410); type: functional; settings: human respiratory syncytial virus
[10] = A Cell-Based Counter Screen testing Compounds that Inhibit VEEV TC-83, in strain KU V3526.; type: functional
[11] = A Cell-Based Confirmatory Screen for Compounds that Inhibit VEEV, TC-83 (2).; type: functional
[12] = viability loss in Vero 76 cells – cell-based, set 2, cytotoxicity control, dose response (AID 602240); type: functional; settings: Venezuelan equine encephalitis virus
[13] = target: ATP-sensitive inward rectifier potassium channel 1 (Homo sapiens, UniProt P48048); experiment: Kir1.1 channel inhibitor analog potency – cell-based, thallium flux, analog library, SAR follow-up (AID 435017); type: functional
[14] = Luminescence Cell-Based Dose Response to Identify Activators of 5'UTR Stem-Loop Driven Prion Protein mRNA Translation in H4-C Neuroglioblastoma Cells. [Related pubchem assays: 1829 (Project Summary), 1814 (Primary HTS)]; type: functional
[15] = Luminescence Cell-Based Dose Confirmation HTS to Identify Activators of 5'UTR Stem-Loop Driven Alpha-Synuclein mRNA Translation in H4 Neuroglioblastoma Cells. [Related pubchem assays: 1829 (Project Summary), 1814 (Primary HTS)]; type: functional
[16] = Luminescence Cell-Based Dose Response HTS to Identify Activators of Luciferase Translation or Activity in H4 […] Cells. [Related pubchem assays: 1829 (Project Summary), 1814 (Primary HTS)]; type: functional
H4 = experiment: Luminescence Cell-Based Dose Response HTS to Identify Activators of 5'UTR Stem-Loop Driven Prion Protein mRNA Translation in H4 Neuroglioblastoma Cells. [Related pubchem assays: 1829 (Project Summary), 1814 (Primary HTS)]; type: functional; settings: Homo sapiens
[17] = Luminescence Cell-Based Dose Response to Identify Activators of Luciferase Translation or Activity in H4-C Neuroglioblastoma Cells. [Related pubchem assays: 1829 (Project Summary), 1814 (Primary HTS)]; type: functional
[18] = Luminescence Cell-Based Dose Confirmation to Identify Activators of 5'UTR Stem-Loop Driven Alpha-Synuclein mRNA Translation in H4 Neuroglioblastoma Cells. [Related pubchem assays: 1829 (Project Summary), 1814 (Primary HTS)]; type: functional
[19] = A High Throughput Confirmatory Assay used to Identify Novel Compounds that Inhibit Mycobacterium Tuberculosis in the absence of Glycerol.; type: functional
[20] = M. tuberculosis growth inhibition, HTS (AID 449762); type: functional
[21] = M. tuberculosis H37Rv growth inhibitors, H37Rv strain (AID 1626); type: functional

Sequence of ATP-sensitive inward rectifier potassium channel 1 (P48048 whole entry): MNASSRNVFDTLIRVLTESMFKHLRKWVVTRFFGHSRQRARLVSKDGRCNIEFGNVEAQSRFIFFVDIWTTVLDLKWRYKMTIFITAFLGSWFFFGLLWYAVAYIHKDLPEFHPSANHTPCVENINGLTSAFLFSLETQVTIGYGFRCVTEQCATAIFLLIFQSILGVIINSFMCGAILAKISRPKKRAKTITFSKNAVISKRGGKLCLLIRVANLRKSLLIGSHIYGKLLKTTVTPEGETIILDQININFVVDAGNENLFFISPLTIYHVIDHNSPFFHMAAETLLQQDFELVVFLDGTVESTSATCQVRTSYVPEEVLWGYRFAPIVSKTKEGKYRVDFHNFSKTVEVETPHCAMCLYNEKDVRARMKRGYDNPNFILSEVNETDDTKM
Sequence of Genome polyprotein (P29990 2492-3391 limits assumed): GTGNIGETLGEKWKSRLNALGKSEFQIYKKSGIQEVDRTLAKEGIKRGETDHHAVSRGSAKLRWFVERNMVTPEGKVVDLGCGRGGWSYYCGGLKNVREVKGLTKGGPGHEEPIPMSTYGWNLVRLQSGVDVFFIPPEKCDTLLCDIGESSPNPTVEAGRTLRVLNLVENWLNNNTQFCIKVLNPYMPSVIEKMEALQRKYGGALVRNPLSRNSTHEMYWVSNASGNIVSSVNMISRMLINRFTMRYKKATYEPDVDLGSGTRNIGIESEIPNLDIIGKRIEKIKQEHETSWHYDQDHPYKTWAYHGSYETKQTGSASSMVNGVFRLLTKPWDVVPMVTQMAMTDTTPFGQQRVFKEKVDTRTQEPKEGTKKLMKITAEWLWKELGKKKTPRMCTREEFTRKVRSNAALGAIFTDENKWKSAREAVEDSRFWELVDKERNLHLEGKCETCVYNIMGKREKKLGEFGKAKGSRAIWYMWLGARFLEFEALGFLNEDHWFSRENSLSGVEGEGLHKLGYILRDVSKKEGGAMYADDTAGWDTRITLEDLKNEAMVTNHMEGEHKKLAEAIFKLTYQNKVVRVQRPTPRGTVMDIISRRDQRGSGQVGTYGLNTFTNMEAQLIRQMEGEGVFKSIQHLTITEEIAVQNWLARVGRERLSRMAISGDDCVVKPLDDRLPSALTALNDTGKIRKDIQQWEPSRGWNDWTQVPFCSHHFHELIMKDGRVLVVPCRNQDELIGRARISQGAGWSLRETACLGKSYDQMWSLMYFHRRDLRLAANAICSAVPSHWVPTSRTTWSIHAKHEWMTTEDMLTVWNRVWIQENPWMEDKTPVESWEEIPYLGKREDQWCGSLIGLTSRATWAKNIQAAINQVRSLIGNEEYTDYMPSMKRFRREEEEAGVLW

Cc1ccc(NC(=O)C(=Cc2ccc(C(=O)O)cc2)C(=O)Nc2ccc(C)cc2C)c(C)c1
active: IC50 [1] 1.95 µM | CC50 (Vero [2]) 7.51 µM | AC50 [3] 1.9 µM | EC50 [4] 6.71 µM | AC50 [5] 2.51 µM | CC50 (Vero [6]) 27.3 µM | IC50 (Vero [7]) 19.6 µM | EC50 (Protein RecA) 3.21 µM | CC50 (Vero [8]) 9.83 µM | IC50 (Genome polyprotein) > 100 µM

O=C(Cc1cccs1)Nc1nc2c(s1)CCCC2
active: CC50 [9] 17.2 µM | IC50 (Vero [7]) 6.38 µM | CC50 (Vero [8]) > 25 µM | IC50 [10] 4.71 µM | IC50 [11] 7.09 µM | CC50 [12] > 50 µM | IC50 (cells) 10 µM

COc1ccc([N+](=O)[O-])cc1CN1CCOCCOCCN(Cc2ccc([N+](=O)[O-])cc2OC)CCOCC1
active: IC50 [13] 1.5 µM

NNc1nc2c(F)cccc2s1
> 12 µM (not active): EC50 [14] | EC50 [17] | EC50 [18]
active: EC50 [15] < 0.1 µM | EC50 [16] 5.67 µM
> 120 µM (not active): EC50 (H4)

O=c1c2ccccc2nc(/C=C/c2ccccc2)n1-c1ccc(O)cc1
active: IC50 [19] > 50 µM | IC50 [20] > 100 µM

CCc1ccc(Nc2c([N+](=O)[O-])c(=O)oc3ccccc23)cc1
active: IC50 [21] > 100 µM
